This passage reports mutagenic call results from PubChem BioAssay AID1259407 (Chemical Carcinogenesis Research Information System (CCRIS), 2018).

Active and inactive are the calls of the source. The rule behind the calls is not given here.

For this series, the system named is CCRIS mutagenicity, Ames/micronucleus/aberration tests. Kind of series: CCRIS mutagenicity studies.
Where [1] appears, read: Test System: AMES SALMONELLA TYPHIMURIUM, Strain/Indicator: TA100, Metabolic Activation: NONE, Method: STANDARD PLATE.
The mark [2] stands for this setting: Test System: AMES SALMONELLA TYPHIMURIUM, Strain/Indicator: TA98, Metabolic Activation: NONE, Method: STANDARD PLATE.

On to `N[C@@H](CS)C(=O)O`, for which the mutagenic call is, setting by setting: (End Point: IN VIVO MICRONUCLEUS, Test System: BONE MARROW POLYCHROMATIC ERYTHROCYTES, Species: MOUSE, Strain/Sex: DDY/MALE, Route: IP) “inactive; negative”; (Test System: AMES SALMONELLA TYPHIMURIUM, Strain/Indicator: TA92, Metabolic Activation: HOMOGENIZED V-79, Method: STANDARD PLATE) “active; positive”; (Test System: AMES SALMONELLA TYPHIMURIUM, Strain/Indicator: TA92, Metabolic Activation: NONE, Method: STANDARD PLATE) “active; positive”; (Test System: AMES SALMONELLA TYPHIMURIUM, Strain/Indicator: TA92, Metabolic Activation: RAT, KIDNEY, S-9, Method: PREINCUBATION) “active; positive”; (Test System: AMES SALMONELLA TYPHIMURIUM, Strain/Indicator: TA92, Metabolic Activation: RAT, KIDNEY, S-9, Method: STANDARD PLATE) “active; positive”; (Test System: AMES SALMONELLA TYPHIMURIUM, Strain/Indicator: TA92, Metabolic Activation: RAT, LIVER, S-9, Method: STANDARD PLATE) “active; positive”. Further, the mutagenic call (Test System: AMES SALMONELLA TYPHIMURIUM, Strain/Indicator: TA97, Metabolic Activation: RAT, KIDNEY, S-9, Method: PREINCUBATION) was “active; positive”; the mutagenic call (Test System: AMES SALMONELLA TYPHIMURIUM, Strain/Indicator: TA97, Metabolic Activation: RAT, KIDNEY, S-9, Method: STANDARD PLATE) was “active; positive”; the mutagenic call (Test System: AMES SALMONELLA TYPHIMURIUM, Strain/Indicator: TA98, Metabolic Activation: HAMSTER, LIVER, S-9, AROCLOR 1254, Method: STANDARD PLATE) is “active; positive”; the mutagenic call (Test System: AMES SALMONELLA TYPHIMURIUM, Strain/Indicator: TA98, Metabolic Activation: RAT, LIVER, S-9, AROCLOR 1254, Method: STANDARD PLATE) is “active; positive”; the mutagenic call (Test System: AMES SALMONELLA TYPHIMURIUM, Strain/Indicator: TA100, Metabolic Activation: HAMSTER, LIVER, S-9, AROCLOR 1254, Method: STANDARD PLATE) is “active; positive”; the mutagenic call under setting [1] was “active; positive”. The mutagenic call is “active; positive” (Test System: AMES SALMONELLA TYPHIMURIUM, Strain/Indicator: TA100, Metabolic Activation: RAT, KIDNEY, S-9, Method: PREINCUBATION); “active; positive” (Test System: AMES SALMONELLA TYPHIMURIUM, Strain/Indicator: TA100, Metabolic Activation: RAT, KIDNEY, S-9, Method: STANDARD PLATE); “active; positive” (Test System: AMES SALMONELLA TYPHIMURIUM, Strain/Indicator: TA100, Metabolic Activation: RAT, LIVER, S-9, AROCLOR 1254, Method: STANDARD PLATE); “active; positive” (Test System: AMES SALMONELLA TYPHIMURIUM, Strain/Indicator: TA100, Metabolic Activation: RAT, LIVER, S-9, Method: STANDARD PLATE); “active; positive” (Test System: AMES SALMONELLA TYPHIMURIUM, Strain/Indicator: TA102, Metabolic Activation: NONE, Method: STANDARD PLATE); “active; positive” (Test System: AMES SALMONELLA TYPHIMURIUM, Strain/Indicator: TA102, Metabolic Activation: RAT, KIDNEY, S-9, Method: PREINCUBATION). Also, the mutagenic call was “active; positive” (Test System: AMES SALMONELLA TYPHIMURIUM, Strain/Indicator: TA104, Metabolic Activation: RAT, KIDNEY, S-9, Method: PREINCUBATION); “inactive; negative” (Test System: AMES SALMONELLA TYPHIMURIUM, Strain/Indicator: TA104, Metabolic Activation: RAT, KIDNEY, S-9, Method: STANDARD PLATE); “inactive; negative” (Test System: AMES SALMONELLA TYPHIMURIUM, Strain/Indicator: TA1535, Metabolic Activation: RAT, KIDNEY, S-9, Method: PREINCUBATION); “inactive; negative” (Test System: AMES SALMONELLA TYPHIMURIUM, Strain/Indicator: TA1537, Metabolic Activation: RAT, KIDNEY, S-9, Method: PREINCUBATION); “inactive; negative” (Test System: CHINESE HAMSTER V-79, Strain/Indicator: V-79/6-THIOGUANINE, Metabolic Activation: NONE, Method: STANDARD PLATE); “active; positive. reevaluation of results: positive” (Test System: MOUSE LYMPHOMA, Strain/Indicator: L5178Y (TK+/TK-), Metabolic Activation: NONE, Method: SUSPENSION/PLATE). Also, where the note is “Test System: MOUSE LYMPHOMA, Strain/Indicator: L5178Y (TK+/TK-), Metabolic Activation: RAT, LIVER, S-9, AROCLOR 1254, Method: SUSPENSION/PLATE”, the mutagenic call was “active; positive. reevaluation of results: positive”.
On to `C[C@@H]1CC[C@@]2(OC1)O[C@H]1CC3[C@@H]4CC=C5C[C@@H](O[C@@H]6O[C@H](CO)[C@@H](O[C@@H]7O[C@@H](C)[C@H](O)[C@@H](O)[C@H]7O)[C@H](O)[C@H]6O[C@@H]6O[C@@H](C)[C@H](O)[C@@H](O)[C@H]6O)CC[C@]5(C)[C@H]4CC[C@]3(C)[C@H]1[C@@H]2C` (some centres not stated), for which the mutagenic call by setting is: under setting [2], “inactive; negative”; (Test System: AMES SALMONELLA TYPHIMURIUM, Strain/Indicator: TA98, Metabolic Activation: RAT, LIVER, S-9, PHENOBARBITAL, Method: STANDARD PLATE) “inactive; negative”; under setting [1], “inactive; negative”; (Test System: AMES SALMONELLA TYPHIMURIUM, Strain/Indicator: TA100, Metabolic Activation: RAT, LIVER, S-9, PHENOBARBITAL, Method: STANDARD PLATE) “inactive; negative”.
`O=C(O)c1ccc(Cl)c([N+](=O)[O-])c1`: the mutagenic call was “active; positive” (Test System: AMES SALMONELLA TYPHIMURIUM, Strain/Indicator: TA98, Metabolic Activation: NONE, Method: PREINCUBATION); “inactive; negative” (Test System: AMES SALMONELLA TYPHIMURIUM, Strain/Indicator: TA98, Metabolic Activation: RAT, LIVER, S-9, KANECHLOR 500, Method: PREINCUBATION); “active; positive” (Test System: AMES SALMONELLA TYPHIMURIUM, Strain/Indicator: TA100, Metabolic Activation: NONE, Method: PREINCUBATION); “active; positive” (Test System: AMES SALMONELLA TYPHIMURIUM, Strain/Indicator: TA100, Metabolic Activation: RAT, LIVER, S-9, KANECHLOR 500, Method: PREINCUBATION).
As for `Cc1ccc(N=Nc2c(O)ccc3ccccc23)cc1`, the mutagenic call runs as follows: under setting [2], “inactive; negative”; (Test System: AMES SALMONELLA TYPHIMURIUM, Strain/Indicator: TA98, Metabolic Activation: RAT, LIVER, S-9, Method: STANDARD PLATE) “inactive; negative”; under setting [1], “inactive; negative”; (Test System: AMES SALMONELLA TYPHIMURIUM, Strain/Indicator: TA100, Metabolic Activation: RAT, LIVER, S-9,, Method: STANDARD PLATE) “inactive; negative”.
